Test results published in ChEMBL document CHEMBL6092217 (Eur J Med Chem, 2024).
The source made the active and inactive calls. The calls are words filed in the database; no cut-off is given here.

Columns and labels:
[1] = Toxicity in ICR mouse assessed as effect on BUN level at 10 to 40 mg/kg, iv administered every 2 days and measured after 14 days; format: organism-based; settings: in vivo, 336 h, dose 10-40 mg/kg, time 14 day
HT-29 [2] = assay: Induction of cell cycle arrest in human HT-29 cells assessed as accumulation of cells at G2 phase at 200 nM incubated for 24 hrs by flow cytometry analysis (reference value: 13 %); format: functional
HT-29 [3] = assay: Induction of cell cycle arrest in human HT-29 cells assessed as accumulation of cells at S phase at 100 nM incubated for 24 hrs by flow cytometry analysis (reference value: 20.8 %); format: functional
[4] = Toxicity in ICR mouse assessed as effect on WBC count at 10 to 40 mg/kg, iv administered every 2 days and measured after 14 days; format: organism-based; settings: in vivo, 336 h, dose 10-40 mg/kg, time 14 day
HT-29 [5] = assay: Induction of apoptosis in human HT-29 cells assessed as viable cells at 200 nM incubated for 24 hrs by FITC/PI staining based flow cytometry analysis (reference value: 91.6%); format: functional; settings: read-out: Activity
[6] = Toxicity in BALB/c mouse assessed as heart damage at 10 to 40 mg/kg, iv measured after 21 days by H and E staining based analysis; format: organism-based; settings: in vivo, 504 h, dose 10-40 mg/kg, time 21 day
[7] = Toxicity in ICR mouse assessed as effect on hemoglobin level at 10 to 40 mg/kg, iv administered every 2 days and measured after 14 days; format: organism-based; settings: in vivo, 336 h, dose 10-40 mg/kg, time 14 day
HT-29 [8] = assay: Induction of apoptosis in human HT-29 cells assessed as necrotic cells at 200 nM incubated for 24 hrs by FITC/PI staining based flow cytometry analysis (reference value: 0.017 %); format: functional
A549 [9] = assay: Inhibition of cell migration in human A549 cells incubated for 24 hrs by wound healing assay; format: functional, cell-based; settings: dose 50-100 nM
HT-29 [10] = assay: Antitumor activity against human HT-29 cells xenografted in BALB/c mouse assessed as tumor growth inhibition at 20 mg/kg, iv measured after 21 days; format: functional; settings: HT-29, 504 h, time 21 day, read-out: TGI
A549 [11] = assay: Inhibition of cell invasion in human A549 cells measured for 24 hrs by Transwell assay; format: functional, cell-based; settings: dose 50-100 nM
[12] = Toxicity in ICR mouse assessed as effect on LDH level at 10 to 40 mg/kg, iv administered every 2 days and measured after 14 days; format: organism-based; settings: in vivo, 336 h, dose 10-40 mg/kg, time 14 day
HT-29 [13] = assay: Induction of cell cycle arrest in human HT-29 cells assessed as accumulation of cells at G1 phase at 100 nM incubated for 24 hrs by flow cytometry analysis (reference value: 67.6%); format: functional
[14] = Toxicity in ICR mouse assessed as effect on ALT level at 10 to 40 mg/kg, iv administered every 2 days and measured after 14 days; format: organism-based; settings: in vivo, 336 h, dose 10-40 mg/kg, time 14 day
Mitochondrial membrane [15] = assay: Induction of mitochondrial membrane potential loss in human HT-29 cells incubated for 24 hrs by JC-1 staining based confocal microscopic analysis; format: cell membranes; settings: dose 50-100 nM
HT-29 [16] = assay: Induction of cell cycle arrest in human HT-29 cells assessed as accumulation of cells at G2 phase at 50 nM incubated for 24 hrs by flow cytometry analysis (reference value: 13 %); format: functional
HT-29 [17] = assay: Antitumor activity against human HT-29 cells xenografted in BALB/c mouse assessed as tumor growth inhibition at 10 mg/kg, iv measured after 21 days; format: functional; settings: HT-29, 504 h, time 21 day, read-out: TGI
[18] = Toxicity in BALB/c mouse assessed as lung damage at 10 to 40 mg/kg, iv measured after 21 days by H and E staining based analysis; format: organism-based; settings: in vivo, 504 h, dose 10-40 mg/kg, time 21 day
[19] = Toxicity in ICR mouse assessed as effect on CREA level at 10 to 40 mg/kg, iv administered every 2 days and measured after 14 days; format: organism-based; settings: in vivo, 336 h, dose 10-40 mg/kg, time 14 day
[20] = Toxicity in ICR mouse assessed as effect on RBC count at 10 to 40 mg/kg, iv administered every 2 days and measured after 14 days; format: organism-based; settings: in vivo, 336 h, dose 10-40 mg/kg, time 14 day
Tubulin (Homo sapiens) [21] = target: T1, Tubulin (Homo sapiens) (UniProt P68371+Q9H4B7+P0DPH7+P68366+Q13509+Q71U36+P04350+Q3ZCM7+P07437+P68363+Q9BQE3+Q6PEY2+Q13885+Q9BVA1+Q9BUF5); assay: Inhibition of tubulin polymerization in human HT-29 cells assessed as reduction in beta-tubulin expression 50 to 200 nM incubated for 24 hrs by Western blot analysis; format: cell-based; settings: dose 50-200 nM
[22] = Volume of distribution at steady state in Sprague-Dawley rat at 5 mg/kg, iv measured upto 24 hrs by HPLC-MS analysis; format: ADME, organism-based; settings: in vivo, read-out: Vdss
[23] = Binding affinity to porcine brain tubulin assessed as dissociation constant measured after 20 mins by fluorescence based analysis; set-up: species or system Sus scrofa
[24] = Half life in Sprague-Dawley rat at 5 mg/kg, iv measured upto 24 hrs by HPLC-MS analysis; format: ADME, organism-based; settings: in vivo
HT-29 [25] = assay: Antitumor activity against human HT-29 cells xenografted in BALB/c mouse assessed as reduction in Ki67 expression at 10 to 40 mg/kg, iv measured after 21 days by immunohistochemical analysis; format: functional, organism-based; settings: dose 10-40 mg/kg, time 21.0 day
[26] = Toxicity in ICR mouse assessed as effect on granulocytes count at 10 to 40 mg/kg, iv administered every 2 days and measured after 14 days; format: organism-based; settings: in vivo, 336 h, dose 10-40 mg/kg, time 14 day
Tubulin = assay: (§1) Inhibition of tubulin polymerization (unknown origin) in presence of GTP by fluorescence plate reader analysis; format: protein-complex assay, Homo sapiens
Tubulin (Homo sapiens) [27] = target: T1, Tubulin (Homo sapiens); assay: as §1; format: protein-complex assay; settings: dose 0.625-10 µM
HT-29 [28] = assay: Induction of apoptosis in human HT-29 cells assessed as late apoptotic cells at 50 nM incubated for 24 hrs by FITC/PI staining based flow cytometry analysis (reference value: 0.20%); format: functional
Tubulin (Homo sapiens) [29] = target: T1, Tubulin (Homo sapiens); assay: Disruption of microtubule network in human HT-29 cells incubated for 8 hrs by DAPI staining based confocal microscopic analysis; format: cell-based; settings: dose 50-200 nM
Tubulin (Homo sapiens) [30] = target: T1, Tubulin (Homo sapiens); assay: Inhibition of tubulin polymerization in human HT-29 cells assessed as downregulation of acetylated alpha-tubulin expression 50 to 200 nM incubated for 24 hrs by Western blot analysis; format: cell-based; settings: dose 50-200 nM
HT-29 [31] = assay: Induction of ROS accumulation in human HT-29 cells incubated for 24 hrs by DCFH-DA staining based microscopic analysis; format: functional, cell-based; settings: dose 50-100 nM
MDA-MB-231 = assay: cells; settings: Homo sapiens, MDA-MB-231, 72 h
Description: Antiproliferative activity against human MDA-MB-231 cells assessed as cell viability incubated for 72 hrs by MTT assay

Mitochondrial membrane [32] = assay: Induction of mitochondrial membrane potential loss in human HT-29 cells assessed as increase in green fluorescence at 50 to 100 nM incubated for 24 hrs by JC-1 staining based confocal microscopic analysis; format: cell membranes; settings: dose 50-100 nM
HT-29 [33] = assay: Induction of apoptosis in human HT-29 cells assessed as upregulation of cleaved caspase 3 level at 50 to 200 nM incubated for 24 hrs by Western blot analysis; format: functional, cell-based; settings: dose 50-200 nM
HT-29 [34] = assay: Induction of apoptosis in human HT-29 cells assessed as early apoptotic cells at 100 nM incubated for 24 hrs by FITC/PI staining based flow cytometry analysis (reference value: 8.14%); format: functional
HT-29 [35] = assay: Antitumor activity against human HT-29 cells xenografted in BALB/c mouse assessed as tumor growth inhibition at 40 mg/kg, iv measured after 21 days; format: functional; settings: HT-29, 504 h, time 21 day, read-out: TGI
[36] = Toxicity in ICR mouse assessed as effect on AST level at 10 to 40 mg/kg, iv administered every 2 days and measured after 14 days; format: organism-based; settings: in vivo, 336 h, dose 10-40 mg/kg, time 14 day

Structure (SMILES): COc1ccc(N(C)c2nc(/C=C/c3cccc(OC)c3)nc3ccccc23)cc1
- Activity [1]: Non-toxic
- Activity (HT-29 [2]): 69.8%
- Activity (HT-29 [3]): 24.9%
- Activity [4]: Non-toxic
- viability at 0.2 µM (HT-29 [5]): 43.2%
- Activity [6]: Non-toxic
- Activity [7]: Non-toxic
- Activity (HT-29 [8]): 1.36%
- inhibition (A549 [9]): Dose-dependent-effect
- inhibition in vivo at 20 mg/kg (HT-29 [10]): 64.7%
- inhibition (A549 [11]): Dose-dependent-effect
- Activity [12]: Non-toxic
- Activity (HT-29 [13]): 35.6%
- Activity [14]: Non-toxic
- Activity (Mitochondrial membrane [15]): Dose-dependent-effect
- Activity (HT-29 [16]): 17.8%
- inhibition in vivo at 10 mg/kg (HT-29 [17]): 53%
- Activity [18]: Non-toxic
- Activity [19]: Non-toxic
- Activity [20]: Non-toxic
- inhibition (Tubulin (Homo sapiens) [21]): Active
- Vd [22]: 1.03 L/kg
- Kd [23]: 8.79 µM
- half-life [24]: 30.6 min
- Activity (HT-29 [25]): Active
- Activity [26]: Non-toxic
- IC50 (Tubulin): 3.16 µM
- inhibition (Tubulin (Homo sapiens) [27]): Dose-dependent-effect
- Activity (HT-29 [28]): 13.6%
- Activity (Tubulin (Homo sapiens) [29]): Dose-dependent-effect
- inhibition (Tubulin (Homo sapiens) [30]): Active
- Activity (HT-29 [31]): Dose-dependent-effect
- IC50 (MDA-MB-231): 440 nM
- Activity (Mitochondrial membrane [32]): Active
- Activity (HT-29 [33]): Active
- Activity (HT-29 [34]): 2.87%
- inhibition in vivo at 40 mg/kg (HT-29 [35]): 74.2%
- Activity [36]: Non-toxic
